Usually mortality stands for the percentage killed.

The structures appear in SMILES notation.

The test system of this data set is Pseudaletia separata Walker. The experiment in a line: Effects on Pseudaletia separata Walker (corn leaf immersion, third instar larvae). As to conditions: wettable powder diluted to 125 ppm, corn leaves immersed 30 seconds, 25° C., 65% RH, assessed 6 days after treatment. The format is in vivo. The procedure: Effects on Pseudaletia separata Walker
According to the instructions of the wettable powder described in the above Example 2, a wettable powder was diluted with water to make the compound concentration 125 ppm. Corn leaves were immersed in the solution for 30 seconds, air-dried and placed in a Petri dish containing 5 third instar larvae of Pseudaletia separata Walker. The dish was covered with a glass lid and placed in a thermostatic chamber of temperature of 25° C. and relative humidity of 65%. Mortality was assessed 6 days after treatment. Each test was replicated twice.

In turn, `Cc1cc(Cl)ccc1N=CN(C)C` [Chlordimeform] returned a mortality of 40%.

(Values after patent publication US6492404B1, “Thiazolylcinnamonitriles and pest controlling agents” (Nippon Soda Co., Ltd., priority 1998, dated 2002).)
